Drawing on PMC5025885, “Identification of Doxorubicin as an Inhibitor of the IRE1α-XBP1 Axis of the Unfolded Protein Response” (Scientific Reports, 2016), this text covers IC50 for one compound.

The experiment addresses T1, IRE1α (Homo sapiens, UniProt O75460).
T1 construct: gene ERN1
In words: cell-free in vitro IRE1α RNase assay on XBP1 and BLOC1S1 RNA substrates. Type of experiment: biochemical.

T1 sequence (O75460 19-977): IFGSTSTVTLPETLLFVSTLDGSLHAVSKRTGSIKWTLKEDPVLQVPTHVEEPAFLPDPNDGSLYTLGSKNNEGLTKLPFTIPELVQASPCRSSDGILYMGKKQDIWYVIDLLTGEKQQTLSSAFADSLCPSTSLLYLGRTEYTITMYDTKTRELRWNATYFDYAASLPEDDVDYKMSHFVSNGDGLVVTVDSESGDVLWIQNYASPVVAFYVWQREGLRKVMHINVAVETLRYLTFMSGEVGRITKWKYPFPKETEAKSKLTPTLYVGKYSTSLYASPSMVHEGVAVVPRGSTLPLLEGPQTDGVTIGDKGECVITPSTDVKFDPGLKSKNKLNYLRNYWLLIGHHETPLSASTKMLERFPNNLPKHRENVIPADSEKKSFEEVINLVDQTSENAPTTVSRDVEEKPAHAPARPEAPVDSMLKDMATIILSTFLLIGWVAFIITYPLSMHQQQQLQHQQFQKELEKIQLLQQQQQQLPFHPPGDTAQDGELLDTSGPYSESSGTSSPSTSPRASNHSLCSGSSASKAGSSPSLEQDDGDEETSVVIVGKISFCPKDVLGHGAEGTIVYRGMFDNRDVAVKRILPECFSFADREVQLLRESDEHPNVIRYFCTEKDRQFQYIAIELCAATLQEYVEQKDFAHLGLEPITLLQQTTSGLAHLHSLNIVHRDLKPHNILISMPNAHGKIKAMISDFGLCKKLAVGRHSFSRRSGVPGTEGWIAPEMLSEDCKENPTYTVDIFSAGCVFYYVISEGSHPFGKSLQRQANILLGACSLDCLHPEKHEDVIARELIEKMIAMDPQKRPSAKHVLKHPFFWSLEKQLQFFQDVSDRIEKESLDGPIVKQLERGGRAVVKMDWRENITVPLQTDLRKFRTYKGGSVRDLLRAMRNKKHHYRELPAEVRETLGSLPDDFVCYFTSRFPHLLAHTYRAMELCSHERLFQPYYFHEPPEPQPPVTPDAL

As to `COc1cccc2c1C(=O)c1c(O)c3c(c(O)c1C2=O)C[C@@](O)(C(=O)CO)C[C@@H]3O[C@H]1C[C@H](N)[C@H](O)[C@H](C)O1` [doxorubicin], the IC50 (as a rule, the midpoint of a concentration-inhibition curve) is around 20 µM.
